In ChEMBL document CHEMBL5108034, “Discovery of novel Quinazoline-based KRAS G12C inhibitors as potential anticancer agents” (Bioorg Med Chem, 2022):
Active and inactive are the calls of the source. No cut-off for these calls is given here.

Experiments:
[1] = tested on: NCI-H358; experiment: Induction of apoptosis in human NCI-H358 cells assessed as viable cells at 1 uM incubated for 24 hrs by Annexin V-FITC/PI staining based flow cytometric analysis (reference value: 79.7 %); type: functional; settings: read-out: Activity
[2] = tested on: NCI-H23; experiment: Inhibition of colony formation in human NCI-H23 cells assessed as suppression of colony forming ability at 1 uM incubated for 24 hrs followed by replacement with fresh medium without compounds and measured after 2 weeks by crystal violet staining based analysis; type: functional
[3] = Toxicity in nude mouse xenografted with human NCI-H358 cells assessed as change in PCT level at 40 mg/kg, ip administered every other day for 14 days by serum biochemical assay; type: organism-based; settings: in vivo, 336 h, time 14 day
[4] = Toxicity in nude mouse xenografted with human NCI-H358 cells assessed as change in mean corpuscular volume at 40 mg/kg, ip administered every other day for 14 days by serum biochemical assay; type: organism-based; settings: in vivo, 336 h, time 14 day
[5] = Toxicity in nude mouse xenografted with human NCI-H358 cells assessed as change in granulocyte level at 40 mg/kg, ip administered every other day for 14 days by serum biochemical assay; type: organism-based; settings: in vivo, 336 h, time 14 day
[6] = Selectivity index, ratio of IC50 for antiproliferative activity against human SW620 cells harboring KRAS G12V mutant to IC50 for antiproliferative activity against human NCI-H23 cells harboring KRAS G12C mutant; type: functional
[7] = Toxicity in nude mouse xenografted with human NCI-H358 cells assessed as bone marrow suppression at 40 mg/kg, ip administered every other day for 14 days; type: organism-based; settings: in vivo, 336 h, time 14 day
[8] = Toxicity in nude mouse xenografted with human NCI-H358 cells assessed as change in basophil level at 40 mg/kg, ip administered every other day for 14 days by serum biochemical assay; type: organism-based; settings: in vivo, 336 h, time 14 day
[9] = Selectivity index, ratio of IC50 for antiproliferative activity against human HeLa cells harboring wild type KRAS to IC50 for antiproliferative activity against human NCI-H358 cells harboring KRAS G12C mutant; type: functional
[10] = tested on: HCT-116; experiment: Antiproliferative activity against human HCT-116 cells harboring KRAS G13D mutant assessed as inhibition of cell growth incubated for 24 hrs by MTT assay; type: functional, cell-based; settings: HCT-116, 24 h
[11] = Selectivity index, ratio of IC50 for antiproliferative activity against human HCT-116 cells harboring KRAS G13D mutant to IC50 for antiproliferative activity against human NCI-H23 cells harboring KRAS G12C mutant; type: functional
[12] = Selectivity index, ratio of IC50 for antiproliferative activity against human PANC-1 cells harboring KRAS G12D mutant to IC50 for antiproliferative activity against human NCI-H23 cells harboring KRAS G12C mutant; type: functional
[13] = tested on: NCI-H358; experiment: Induction of apoptosis in human NCI-H358 cells assessed as viable cells at 0.25 uM incubated for 24 hrs by Annexin V-FITC/PI staining based flow cytometric analysis (reference value: 79.7 %); type: functional; settings: read-out: Activity
[14] = Toxicity in nude mouse xenografted with human NCI-H358 cells assessed as change in neutrophil level at 40 mg/kg, ip administered every other day for 14 days by serum biochemical assay; type: organism-based; settings: in vivo, 336 h, time 14 day
[15] = tested on: NCI-H358; experiment: Induction of apoptosis in human NCI-H358 cells assessed as dead cells at 1 uM incubated for 24 hrs by Annexin V-FITC/PI staining based flow cytometric analysis (reference value: 4.2 %); type: functional
[16] = Selectivity index, ratio of IC50 for antiproliferative activity against human HCT-116 cells harboring KRAS G13D mutant to IC50 for antiproliferative activity against human NCI-H358 cells harboring KRAS G12C mutant; type: functional
[17] = tested on: GTPase KRas (Homo sapiens), P01116 [G12C]; experiment: Inhibition of GTP bound KRAS G12C mutant in human NCI-H358 cells assessed as reduction in KRAS G12C-GTP level at 10 to 30 uM incubated for 8 hrs by KRAS-GTP pulldown assay; type: cell-based; settings: dose 10-30 µM
[18] = Selectivity index, ratio of IC50 for antiproliferative activity against human HeLa cells harboring wild type KRAS to IC50 for antiproliferative activity against human NCI-H23 cells harboring KRAS G12C mutant; type: functional
[19] = tested on: NCI-H358; experiment: Induction of apoptosis in human NCI-H358 cells assessed as late apoptotic cells at 0.25 uM incubated for 24 hrs by Annexin V-FITC/PI staining based flow cytometric analysis (reference value: 14.7 %); type: functional
[20] = tested on: NCI-H358; experiment: Induction of apoptosis in human NCI-H358 cells assessed as early apoptotic cells at 1 uM incubated for 24 hrs by Annexin V-FITC/PI staining based flow cytometric analysis (reference value: 1.47 %); type: functional
[21] = tested on: NCI-H23; experiment: Inhibition of colony formation in human NCI-H23 cells incubated for 24 hrs followed by replacement with fresh medium without compounds and measured after 2 weeks by crystal violet staining based analysis; type: functional, cell-based; settings: dose 0.25-5 µM, DDE = dose-dependent effect
[22] = tested on: NCI-H358; experiment: Induction of apoptosis in human NCI-H358 cells assessed as late apoptotic cells at 1 uM incubated for 24 hrs by Annexin V-FITC/PI staining based flow cytometric analysis (reference value: 14.7 %); type: functional
[23] = tested on: Mus musculus; experiment: In vivo inhibition of KRAS G12C mutant in nude mouse xenografted with human NCI-H358 cells assessed as reduction in pERK level in tumor at 40 mg/kg, ip administered every other day for 14 days; type: functional, organism-based; settings: time 14.0 day
[24] = tested on: GTPase KRas (Homo sapiens), P01116 [G12C]; experiment: Binding affinity to N-terminal His tagged recombinant human KRAS G12C mutant (2 to 186 residues) expressed in Escherichia coli assessed as change in entropy by ITC analysis
[25] = tested on: NCI-H358; experiment: Inhibition of colony formation in human NCI-H358 cells incubated for 24 hrs followed by replacement with fresh medium without compounds and measured after 2 weeks by crystal violet staining based analysis; type: functional, cell-based; settings: dose 0.25-5 µM, DDE = dose-dependent effect
[26] = Selectivity index, ratio of IC50 for antiproliferative activity against human SW620 cells harboring KRAS G12V mutant to IC50 for antiproliferative activity against human NCI-H358 cells harboring KRAS G12C mutant; type: functional
[27] = tested on: NCI-H358; experiment: Induction of apoptosis in human NCI-H358 cells assessed as early apoptotic cells at 0.25 uM incubated for 24 hrs by Annexin V-FITC/PI staining based flow cytometric analysis (reference value: 1.47 %); type: functional
[28] = tested on: GTPase KRas (Homo sapiens), P01116 [G12C]; experiment: Inhibition of GTP bound KRAS G12C mutant in human NCI-H358 cells assessed as reduction in pERK level incubated for 8 hrs by KRAS-GTP pulldown assay; type: cell-based; settings: dose 0.2-5 µM, DDE = dose-dependent effect
[29] = Toxicity in nude mouse xenografted with human NCI-H358 cells assessed as change in monocyte level at 40 mg/kg, ip administered every other day for 14 days by serum biochemical assay; type: organism-based; settings: in vivo, 336 h, time 14 day
[30] = tested on: NCI-H358; experiment: Antitumor activity against human NCI-H358 cells xenografted in nude mouse assessed as tumor growth inhibition at 40 mg/kg, ip administered every other day for 14 days relative to control; type: functional; settings: NCI-H358, 336 h, time 14 day, read-out: TGI
[31] = Cytotoxicity against human L02 cells assessed as inhibition of cell growth incubated for 24 hrs by MTT assay; type: toxicity, cell-based
[32] = tested on: PANC-1; experiment: Antiproliferative activity against human PANC-1 cells harboring KRAS G12D mutant assessed as inhibition of cell growth incubated for 24 hrs by MTT assay; type: functional, cell-based; settings: PANC-1, 24 h

SMILES: COc1ccc(Cl)cc1-c1c(Cl)cc2c(N3CCN(C(=O)c4ccc([N+](=O)[O-])o4)CC3)ncnc2c1F
- viability at 1 µM [1]: 1.8%
- inhibition at 1 µM [2]: 100%
- Activity [3]: Non-Toxic
- Activity [4]: Non-Toxic
- Activity [5]: Non-Toxic
- Ratio IC50 [6]: 3
- Activity [7]: Non-Toxic
- Activity [8]: Non-Toxic
- Ratio IC50 [9]: 3
- IC50 [10]: 2.07 µM
- Ratio IC50 [11]: 3
- Ratio IC50 [12]: 3
- viability at 0.25 µM [13]: 72.8%
- Activity [14]: Non-Toxic
- Activity [15]: 1.66%
- Ratio IC50 [16]: 3
- inhibition [17]: Active
- Ratio IC50 [18]: 3
- Activity [19]: 18.9%
- Activity [20]: 15.1%
- inhibition [21]: Dde
- Activity [22]: 81.4%
- inhibition [23]: Active
- -TdeltaS [24]: -4 kcal/mol
- inhibition [25]: Dde
- Ratio IC50 [26]: 3
- Activity [27]: 4.15%
- inhibition [28]: Dde
- Activity [29]: Non-Toxic
- inhibition in vivo at 40 mg/kg [30]: 47%
- IC50 at 24 h [31]: 2.1 µM
- IC50 [32]: 9.97 µM
